Reference: patent US20250171495A1, “MUTLI-TARGETED SERINE PROTEASE INHIBITORS FOR TREATMENT OF CANCER AND VIRAL INFECTION” (Washington University, priority 2023, published 2025)
Where two headings read alike, the source gives them in different places.

Experiments:
Type in all cases: biochemical
matriptase = target: T1, matriptase (Homo sapiens, UniProt Q9Y5Y6); experiment: Fluorogenic kinetic enzyme inhibitor assay, matriptase
T1 construct: purchased R&D Systems 3946-SEB-010
T1 sequence (Q9Y5Y6 615-855 limits assumed): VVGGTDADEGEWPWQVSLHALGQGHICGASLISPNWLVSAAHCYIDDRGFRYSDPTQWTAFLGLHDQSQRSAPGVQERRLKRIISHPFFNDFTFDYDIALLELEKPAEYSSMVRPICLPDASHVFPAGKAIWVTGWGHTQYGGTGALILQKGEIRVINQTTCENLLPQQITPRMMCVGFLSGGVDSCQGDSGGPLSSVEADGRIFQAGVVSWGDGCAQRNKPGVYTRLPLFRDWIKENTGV

TMPRSS2 = TMPRSS2 (Homo sapiens, UniProt O15393); experiment: Fluorogenic kinetic enzyme inhibitor assay, TMPRSS2; parameters: purchased Cusabio Technology CSB-YP023924HU
Chain of TMPRSS2 (O15393 106-492 limits assumed): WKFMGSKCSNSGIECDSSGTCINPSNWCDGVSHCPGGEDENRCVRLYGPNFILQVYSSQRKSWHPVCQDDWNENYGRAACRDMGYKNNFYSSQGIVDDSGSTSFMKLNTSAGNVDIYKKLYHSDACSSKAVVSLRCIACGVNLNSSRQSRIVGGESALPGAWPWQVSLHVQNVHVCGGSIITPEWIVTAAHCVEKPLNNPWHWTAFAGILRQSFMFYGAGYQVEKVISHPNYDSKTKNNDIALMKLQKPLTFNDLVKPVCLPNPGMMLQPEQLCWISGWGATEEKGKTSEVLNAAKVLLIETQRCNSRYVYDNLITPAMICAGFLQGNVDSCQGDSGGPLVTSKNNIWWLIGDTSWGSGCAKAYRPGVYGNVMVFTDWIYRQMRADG

hepsin = target: T2, hepsin (Homo sapiens, UniProt P05981); experiment: Fluorogenic kinetic enzyme inhibitor assay, hepsin
T2 construct: purchased R&D Systems 4776-SE-010
T2 sequence (P05981 163-417 limits assumed): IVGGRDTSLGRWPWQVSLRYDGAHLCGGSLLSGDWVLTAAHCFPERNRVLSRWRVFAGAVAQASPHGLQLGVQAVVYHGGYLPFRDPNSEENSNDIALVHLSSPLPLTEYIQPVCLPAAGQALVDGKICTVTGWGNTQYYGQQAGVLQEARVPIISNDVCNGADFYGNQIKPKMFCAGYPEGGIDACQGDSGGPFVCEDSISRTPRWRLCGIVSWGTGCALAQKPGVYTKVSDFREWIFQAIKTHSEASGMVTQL
T2 sequence (P05981 1-162 partner limits assumed): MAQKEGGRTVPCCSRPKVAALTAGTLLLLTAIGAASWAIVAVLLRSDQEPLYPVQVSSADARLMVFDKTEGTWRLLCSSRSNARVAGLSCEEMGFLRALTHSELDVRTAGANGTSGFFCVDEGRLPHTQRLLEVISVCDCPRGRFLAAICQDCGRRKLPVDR

HGFA = target: T3, HGFA (Homo sapiens, UniProt Q04756); experiment: Fluorogenic kinetic enzyme inhibitor assay, HGFA
T3 construct: purchased R&D Systems 1514-SE-010
T3 sequence (Q04756 408-655 limits assumed): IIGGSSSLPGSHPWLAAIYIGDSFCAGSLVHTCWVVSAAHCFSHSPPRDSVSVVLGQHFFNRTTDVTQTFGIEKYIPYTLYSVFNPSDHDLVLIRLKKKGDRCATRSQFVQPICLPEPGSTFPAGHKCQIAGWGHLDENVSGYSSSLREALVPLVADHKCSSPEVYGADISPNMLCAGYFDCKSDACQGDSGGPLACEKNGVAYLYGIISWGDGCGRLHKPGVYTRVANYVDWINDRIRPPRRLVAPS
T3 sequence (Q04756 373-407 partner limits assumed): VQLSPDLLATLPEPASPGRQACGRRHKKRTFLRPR

Factor Xa = target: T4, Factor Xa (Homo sapiens, UniProt P00742); experiment: Fluorogenic assay, Factor Xa; conditions: read-out: Factor Xa IC50
T4 construct: TMPRSS2; Matriptase; Hepsin; HGFA; Thrombin; Factor Xa
T4 sequence (P00742 235-488 limits assumed): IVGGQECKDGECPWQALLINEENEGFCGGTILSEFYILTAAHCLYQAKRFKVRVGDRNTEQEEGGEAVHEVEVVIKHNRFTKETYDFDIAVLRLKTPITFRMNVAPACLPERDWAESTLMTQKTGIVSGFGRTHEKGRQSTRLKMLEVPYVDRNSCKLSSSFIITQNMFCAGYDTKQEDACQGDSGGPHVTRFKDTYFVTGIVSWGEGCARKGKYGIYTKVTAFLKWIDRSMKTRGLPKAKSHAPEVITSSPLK
T4 sequence (P00742 41-179 partner limits assumed): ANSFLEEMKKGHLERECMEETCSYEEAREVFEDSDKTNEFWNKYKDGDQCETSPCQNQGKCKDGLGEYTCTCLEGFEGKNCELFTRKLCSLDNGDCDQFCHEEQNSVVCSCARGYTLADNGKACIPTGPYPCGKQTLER

[1] = 30 min incubation, Boc-QLR-AMC at Km, read-out: HGFA IC50
[2] = 30 min incubation, Boc-QAR-AMC at Km, read-out: TMPRSS2 IC50
[3] = 30 min incubation, Boc-QAR-AMC at Km, read-out: Hepsin IC50

Row | SMILES | IC50 (matriptase; read-out: Matriptase IC50) [nM] | IC50 (hepsin; read-out: Hepsin IC50) [nM] | IC50 (TMPRSS2; read-out: TMPRSS2 IC50) [nM] | IC50 (HGFA; read-out: HGFA IC50) [nM] | IC50 (matriptase) [nM] | also measured
1 | CC(=O)N[C@@H](CO)C(=O)N[C@@H](CCCCN)C(=O)N[C@@H](CC(C)C)C(=O)N[C@@H](CCCNC(=N)N)C(=O)c1nc2ccccc2s1 [ZFH7053, N-[(S)-3-methyl-1-[N-(S)-1-[(1,3-benzothiazol-2-yl)carbonyl]-4-guanidinobutylcarbamoyl]butyl](S)-2-[(S)-2-acetylamino-3-hydroxypropionylamino]-6-aminohexanamide] | 6.1 | 0.32 |  |  |  | IC50 (TMPRSS2): 39.2 nM; IC50 (HGFA; [1]): 66 nM; IC50 (Factor Xa): 3800 nM
2 | CC(=O)N[C@@H](CCC(N)=O)C(=O)N[C@@H](Cc1ccccc1)C(=O)N[C@@H](CCCNC(=N)N)C(=O)c1nc2ccccc2s1 [MM3144, N-[(S)-1-[N-(S)-1-[(1,3-benzothiazol-2-yl)carbonyl]-4-guanidinobutylcarbamoyl]-2-phenylethyl](S)-2-acetylaminoglutaramide] |  |  |  |  |  | IC50 (HGFA; [1]): 14 nM; IC50 (Factor Xa): 4.5 nM
3 | CC(=O)N[C@H]1Cc2ccc(cc2)OCCCC[C@@H](C(=O)N[C@@H](CCCNC(=N)N)C(=O)c2nc3ccccc3s2)NC(=O)[C@@H](Cc2c[nH]c3ccccc23)NC1=O [VD4162B, N-[(S)-1-[(1,3-benzothiazol-2-yl)carbonyl]-4-guanidinobutyl]-(7S,10R,13S)-13-acetylamino-10-[(3-indolyl)methyl]-9,12-dioxo-2-oxa-8,11-diazabicyclo[13.2.2]nonadeca-1(17),15,18-triene-7-carboxamide] |  |  |  |  |  | IC50 (matriptase; 30 min incubation, Boc-QAR-AMC at Km, read-out: Matriptase IC50): 2.88 nM; IC50 (TMPRSS2; [2]): 4.75 nM; IC50 (hepsin; [3]): 0.538 nM; IC50 (HGFA): 3.35 nM
4 | CC(=O)N1CCC[C@H]1C(=O)N[C@@H](CCC(N)=O)C(=O)N[C@@H](Cc1ccccc1)C(=O)N[C@@H](CCCNC(=N)N)C(=O)c1nc2ccccc2s1 [MM3123, N-[(S)-1-[N-(S)-1-[(1,3-benzothiazol-2-yl)carbonyl]-4-guanidinobutylcarbamoyl]-2-phenylethyl](S)-2-[(S)-1-acetyl-2-pyrrolidinylcarbonylamino] glutaramide] | 0.316 |  | 0.06 | 75 |  | IC50 (hepsin): 0.135 nM; IC50 (Factor Xa): 199 nM
5 | CCC(C)[C@H](NC(C)=O)C(=O)N[C@H](C(=O)N[C@@H](Cc1ccccc1)C(=O)N[C@@H](CCCNC(=N)N)C(=O)c1nc2ccccc2s1)C(C)O (stereo partly drawn) [MM4028-2, N-[(1S)-2-hydroxy-1-[N-(S)-1-[N-(S)-1-[(1,3-benzothiazol-2-yl)carbonyl]-4-guanidinobutylcarbamoyl]-2-phenylethylcarbamoyl]propyl](2S)-2-acetylamino-3-methylvaleramide] |  | 0.863 | 0.064 | 182 | 4.71 | 
6 | CC(=O)N[C@H]1Cc2ccc(cc2)Oc2ccc(cc2)C[C@@H](C(=O)N[C@H](CCCNC(=N)N)C(=O)c2nc3ccccc3s2)NC(=O)[C@H](CC(C)C)NC1=O [VD5076A, N-[(R)-1-[(1,3-benzothiazol-2-yl)carbonyl]-4-guanidinobutyl]-(8S,11S,14S)-14-acetylamino-11-isobutyl-10,13-dioxo-2-oxa-9,12-diazatricyclo[14.2.2.2^3,^6]docosa-1(18),3,5,16,19,21-hexaene-8-carboxamide] |  | 55.3 | 489 | 2900 | 2370 | 
7 | CC(=O)N[C@@H](Cc1c[nH]c2ccccc12)C(=O)N[C@@H](CC(C)C)C(=O)N[C@@H](CCCNC(=N)N)C(=O)c1nc2ccc(C(=O)O)cc2s1 [PK-1-105, 2-[(S)-2-[(S)-2-[(S)-2-acetylamino-3-(3-indolyl)propionylamino]-4-methylvalerylamino]-5-guanidinovaleryl]-1,3-benzothiazole-6-carboxylic acid] | 144 | 0.362 | 1.45 | 98.3 |  | 
8 | CCC(C)[C@H](NC(C)=O)C(=O)N[C@@H](CCC(N)=O)C(=O)N[C@H](C(=O)N[C@@H](CCCNC(=N)N)C(=O)c1nc2ccccc2s1)C(C)C (stereo partly drawn) [MM3180-2, N-[(S)-2-methyl-1-[N-(S)-1-[(1,3-benzothiazol-2-yl)carbonyl]-4-guanidinobutylcarbamoyl]propyl](S)-2-[(2S)-2-acetylamino-3-methylvalerylamino]glutaramide] |  | 0.106 | 0.031 | 799 | 0.761 | 
9 | CC(=O)N[C@@H](CO)C(=O)N[C@@H](Cc1cncn1COCc1ccccc1)C(=O)N[C@@H](CC(C)C)C(=O)N[C@H](CCCNC(=N)N)C(=O)c1nc2ccccc2s1 [MM4036-1, N-[(R)-1-[(1,3-benzothiazol-2-yl)carbonyl]-4-guanidinobutyl](S)-2-[(S)-2-[(S)-2-acetylamino-3-hydroxypropionylamino]-3-{1-[(benzyloxy)methyl]-5-imidazolyl}propionylamino]-4-methylvaleramide] |  | 1.47 | 102 | 1550 | 139 | 
10 | CC(=O)N[C@H]1Cc2cccc(c2)Oc2ccc(cc2)C[C@@H](C(=O)N[C@H](CCCNC(=N)N)C(=O)c2nc3ccccc3s2)NC(=O)[C@H](CC(C)C)NC1=O [VD5123A, N-{(R)-1-[(1,3-benzothiazol-2-yl)carbonyl]-4-guanidinobutyl}-(9S,12S,15S)-9-acetylamino-12-isobutyl-10,13-dioxo-2-oxa-11,14-diazatricyclo [15.2.2.1^3,^7]docosa-1(19),3(22),4,6,17,20-hexaene-15-carboxamide] |  | 146 | 1.78 | 17300 | 478 | 
11 | CC(=O)N[C@H]1Cc2cccc(c2)Oc2ccc(cc2)C[C@@H](C(=O)N[C@@H](CCCNC(=N)N)C(=O)c2nc3ccccc3s2)NC(=O)[C@H](CC(C)C)NC1=O [VD5123B, N-[(S)-1-[(1,3-benzothiazol-2-yl)carbonyl]-4-guanidinobutyl]-(9S,12S,15S)-9-acetylamino-12-isobutyl-10,13-dioxo-2-oxa-11,14-diazatricyclo[15.2.2.1^3,^7] docosa-1(19),3,5,7(22), 17,20-hexaene-15-carboxamide] | 140 |  | 15.2 |  |  | IC50 (hepsin; [3]): 36.9 nM; IC50 (HGFA; [1]): 3980 nM
12 | CC(=O)N[C@@H](Cc1c[nH]c2ccccc12)C(=O)N[C@@H](Cc1ccccc1)C(=O)N[C@@H](CCCNC(=N)N)C(=O)c1nc2ccc(C(=O)O)cc2s1 [PK-1-103, 2-[(S)-2-[(S)-2-[(S)-2-acetylamino-3-(3-indolyl)propionylamino]-3-phenylpropionylamino]-5-guanidinovaleryl]-1,3-benzothiazole-6-carboxylic acid] | 49.1 | 2.08 | 0.223 | 235 |  | 
13 | CC(=O)N[C@H]1Cc2ccc(cc2)OC/C=C\CNC(=O)CC[C@@H](C(=O)N[C@@H](CCCNC(=N)N)C(=O)c2nc3ccccc3s2)NC(=O)[C@H](CC(C)C)NC1=O [VD4018, N-[(S)-1-[(1,3-benzothiazol-2-yl)carbonyl]-4-guanidinobutyl]-(4Z,11S,14S,17S)-17-acetylamino-14-isobutyl-8,13,16-trioxo-2-oxa-7,12,15-triazabicyclo[17.2.2]tricosa-1(21),4,19,22-tetraene-11-carboxamide] |  |  |  |  |  | IC50 (TMPRSS2; [2]): 2.48 nM; IC50 (HGFA; [1]): 6500 nM; IC50 (Factor Xa): 12400 nM
14 | CCC(C)[C@H](NC(C)=O)C(=O)N[C@@H](CCC(=O)O)C(=O)N[C@@H](Cc1ccccc1)C(=O)N[C@@H](CCCNC(=N)N)C(=O)c1nc2ccccc2s1 (stereo partly drawn) [MM4037-2, (S)-4-[(2S)-2-acetylamino-3-methylvalerylamino]-4-[N-(S)-1-[N-(S)-1-[(1,3-benzothiazol-2-yl)carbonyl]-4-guanidinobutylcarbamoyl]-2-phenylethylcarbamoyl]butyric acid] |  | 0.35 | 0.109 | 276 | 2.42 | 
15 | CC(=O)N1CCC[C@H]1C(=O)N[C@@H](CO)C(=O)N[C@@H](CCCCN)C(=O)N[C@@H](CCCNC(=N)N)C(=O)c1nc2ccccc2s1 [MM3194A, N-[(S)-2-hydroxy-1-[N-(S)-5-amino-1-[N-(S)-1-[(1,3-benzothiazol-2-yl)carbonyl]-4-guanidinobutylcarbamoyl]pentylcarbamoy1]ethyl]-(S)-1-acetyl-2-pyrrolidinecarboxamide] |  |  | 0.286 |  | 0.293 | IC50 (hepsin): 2.43 nM; IC50 (HGFA): > 20000 nM
16 | CCC(C)[C@H](NC(C)=O)C(=O)N[C@@H](CO)C(=O)N[C@@H](Cc1ccccc1)C(=O)N[C@@H](CCCNC(=N)N)C(=O)c1nc2ccccc2s1 (stereo partly drawn) [MM4009-2, N-[(S)-2-hydroxy-1-[N-(S)-1-[N-(S)-1-[(1,3-benzothiazol-2-yl)carbonyl]-4-guanidinobutylcarbamoyl]-2-phenylethylcarbamoyl]ethyl] (2S)-2-acetylamino-3-methylvaleramide] |  | 1.05 | 0.067 | 126 | 2.17 | 
